The subject of series [1] is alternative pathway complement activation. As to the kind of experiment: Alternative pathway (AP) complement activation ELISA in normal human serum. It counts as biochemical. The following applies: diluted human serum (figure legends 1%; method 10% NHS). The method, then:
The inhibitory activity of selected peptides in preventing pathway-specific complement activation was evaluated using ELISA as previously described. All assays used normal human serum (NHS), pooled from five unrelated, anonymized healthy donors, obtained with informed consent according to the local ethics committee, and following the guidelines of the Declaration of Helsinki (Blutspendezentrum Basel, Switzerland).
The activity of selected peptides in preventing the activation of the alternative pathway was evaluated by analogy to the classical pathway ELISA described above, with some adjustments. Flat-bottom PolySorb 96-well plates (Thermo Fisher) were coated overnight at room temperature with 40 μg/mL lipopolysaccharide from Salmonella enteritidis (Sigma-Aldrich) in 0.1 M sodium carbonate buffer and washed 5 times with PBS-T. Serial dilutions of peptides were prepared in 10% (v/v) pooled NHS using HBBT + assay buffer (10 mM HEPES, 150 mM NaCl, pH 7.4, 0.5% BSA, 5 mM EGTA, 5 mM MgCl2, and 0.1% Tween-20), with samples diluted in 10% (v/v) NHS. Negative controls included each inhibitor in assay buffer alone, assay buffer only, and 10% (v/v) serum with 10 mM EDTA. HBBT+ with 10% (v/v) pooled NHS served as the 100%-control. Subsequent steps were performed as described above.

For series [2], the system named is classical pathway complement activation. Put plainly: Classical pathway (CP) complement activation ELISA in normal human serum. The following applies: for IC50: CP ELISA. It counts as biochemical. On the procedure:
The inhibitory activity of selected peptides in preventing pathway-specific complement activation was evaluated using ELISA as previously described. All assays used normal human serum (NHS), pooled from five unrelated, anonymized healthy donors, obtained with informed consent according to the local ethics committee, and following the guidelines of the Declaration of Helsinki (Blutspendezentrum Basel, Switzerland). To assess classical pathway activity, flat-bottom MaxiSorp 96-well plates (Thermo Fisher) were coated overnight at room temperature with 33 μg/mL IgM (Sigma) in a 0.1 M sodium carbonate buffer. Plates were washed 5 times with phosphate-buffered saline (Dubleccòs, Bioconcept) supplemented with 0.05% Tween-20 (PBS-T). Serial dilutions of peptides were prepared in 1% (v/v) NHS using HBBT++ assay buffer (10 mM HEPES, 150 mM NaCl, pH 7.4, 0.5% BSA, 0.15 mM CaCl2, 0.5 mM MgCl2, 0.1% Tween-20), with samples diluted in 1% (v/v) NHS. Negative controls included each inhibitor in assay buffer alone, assay buffer only, and 1% (v/v) NHS with 10 mM EDTA. HBBT++ with 1% (v/v) pooled NHS served as the 100%-control. After incubating for 1 h at 37 °C and shaking at 700 rpm, plates were washed 5 times with PBS-T. Next, 100 μL of biotinylated monoclonal mouse antihuman TCC antibody (1:1000, Hycult, clone: aE11) to detect terminal complement complexes was added to each well, followed by 1 h incubation at room temperature while shaking. After another 5 washes with PBS-T, 100 μL of HRP-conjugated NeutrAvidin (1:10,000, Invitrogen) was added to each well and incubated for 20 min at room temperature while shaking. Plates were washed 5 more times with PBS-T before adding 100 μL of 1-Step Turbo TMB-ELISA solution (Thermo Scientific) to each well. The reaction was allowed to develop until a light blue color appeared, and then stopped with 100 μL of 2 M sulfuric acid. Colorimetric detection was performed at 450 nm by using a plate reader (Synergy HT, Biotek). All assays were conducted in triplicate and normalized against 100% (no inhibitor, 1% (v/v) serum in buffer) and 0% (1% (v/v) serum in EDTA buffer) controls. In the cases of Cp60 and Cp40, 5% (v/v) NHS was used instead of 1% (v/v) NHS in some assays. Inhibition curves were fitted using nonlinear regression to a normalized variable slope model in Prism (v9-10, GraphPad).
A general note: ELISA stands for enzyme-linked immunosorbent assay.

Series [3] has as its target T1, human C3b (Homo sapiens, UniProt P01024).
T1 construct: purchased Complement Technology, Tyler, TX, USA
Put plainly: SPR kinetic binding to immobilized human C3b. Particulars: for k a, affinity hC3b / k d, affinity hC3b / Kd: SPR, 1:1 Langmuir fit, average of 3 independent experiments, SD in brackets; for Kd: read-out: K D, affinity hC3b. The method, then:
Experiments were conducted at 25 °C in HBST buffer (10 mM HEPES, 150 mM NaCl, and 0.05% Tween-20, pH 7.4; XanTec bioanalytics). Human C3b (Complement Technology, Tyler, TX, USA) was immobilized via amine-reactive coupling. […] Individual peptide samples were injected for 120 s, followed by a 180 s dissociation phase. […] Signals from the reference cell and buffer blank injections were subtracted within each dilution series to correct for buffer effects and injection artifacts. Data were fitted to a Langmuir 1:1 binding model to calculate association (k a) and dissociation (k d) rate constants, and the equilibration constant K D is calculated based on the equation: K D = k d/k a. In the case of Cp40 derivatives and Cp60, a single-cycle approach was used for kinetic analysis by injecting 5 increasing concentrations of each compound (0.5-40 nM) consecutively without a regeneration period in between injections. Individual injections within a cycle were 120 s long with a 5 min dissociation phase between injections. […] Analog Cp40 was included in each experimental series as a reference and internal control. Signals from the reference cell and buffer blank injections were subtracted to correct for buffer effects and injection artifacts. Kinetic data were processed in BiaEvaluation (Cytiva) using single-cycle evaluation by global fitting each data set to a Langmuir 1:1 binding model. The reported kinetic parameters (Tables and ) indicate the mean values and standard deviations of three independent experiments. SPR sensorgrams are provided in the Supporting Information.

In series [4] the target is T1, human C3b. As to the kind of experiment: SPR kinetic binding to immobilized human C3b. Particulars: K D determined as steady state affinity, read-out: K D, affinity hC3b, steady state affinity. Background: SPR reads the build-up and loss of mass on a sensor chip optically.
For series [5] the following is noted: first-in-human trials, cited from earlier work.
For series [6] the following is noted: cynomolgus monkey, in vivo, 2 mg/kg.
For series [7] the following is noted: cynomolgus monkey, in vivo, sc, 2 mg/kg.

“And” between values parts separate entries of the source, which are not always exact repeats. Identical values can stand only once. Like-named read-outs stand apart in the source and are kept apart here. Where a SMILES comes first, the peptide text is derived from it. Bridges are numbered along the chain shown (N, C = ends). [ ]: non-standard residue; d: D form. Trp(1-Me) = Cn1cc(C[C@H](N)C(=O)O)c2ccccc21; NMeI = CC[C@H](C)[C@H](NC)C(=O)O; Sar = CNCC(=O)O

T1 sequence (P01024 23-667 limits assumed): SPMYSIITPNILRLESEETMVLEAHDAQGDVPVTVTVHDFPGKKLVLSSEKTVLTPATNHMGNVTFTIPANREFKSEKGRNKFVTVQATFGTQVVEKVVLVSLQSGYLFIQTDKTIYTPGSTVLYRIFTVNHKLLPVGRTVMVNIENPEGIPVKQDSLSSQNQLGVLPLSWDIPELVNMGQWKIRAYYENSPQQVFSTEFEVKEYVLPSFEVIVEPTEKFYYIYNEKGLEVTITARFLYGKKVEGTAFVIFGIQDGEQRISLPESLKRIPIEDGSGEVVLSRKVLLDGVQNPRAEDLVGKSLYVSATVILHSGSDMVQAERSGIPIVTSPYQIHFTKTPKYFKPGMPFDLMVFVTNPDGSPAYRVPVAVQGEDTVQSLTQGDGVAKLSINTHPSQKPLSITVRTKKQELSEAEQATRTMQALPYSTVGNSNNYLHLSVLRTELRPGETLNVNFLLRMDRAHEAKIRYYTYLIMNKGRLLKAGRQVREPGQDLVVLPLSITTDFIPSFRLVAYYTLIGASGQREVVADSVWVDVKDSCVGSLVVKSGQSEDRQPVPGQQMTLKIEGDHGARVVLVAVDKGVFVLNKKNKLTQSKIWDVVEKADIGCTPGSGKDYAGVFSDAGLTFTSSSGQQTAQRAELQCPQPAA
T1 sequence (P01024 749-1663 partner limits assumed): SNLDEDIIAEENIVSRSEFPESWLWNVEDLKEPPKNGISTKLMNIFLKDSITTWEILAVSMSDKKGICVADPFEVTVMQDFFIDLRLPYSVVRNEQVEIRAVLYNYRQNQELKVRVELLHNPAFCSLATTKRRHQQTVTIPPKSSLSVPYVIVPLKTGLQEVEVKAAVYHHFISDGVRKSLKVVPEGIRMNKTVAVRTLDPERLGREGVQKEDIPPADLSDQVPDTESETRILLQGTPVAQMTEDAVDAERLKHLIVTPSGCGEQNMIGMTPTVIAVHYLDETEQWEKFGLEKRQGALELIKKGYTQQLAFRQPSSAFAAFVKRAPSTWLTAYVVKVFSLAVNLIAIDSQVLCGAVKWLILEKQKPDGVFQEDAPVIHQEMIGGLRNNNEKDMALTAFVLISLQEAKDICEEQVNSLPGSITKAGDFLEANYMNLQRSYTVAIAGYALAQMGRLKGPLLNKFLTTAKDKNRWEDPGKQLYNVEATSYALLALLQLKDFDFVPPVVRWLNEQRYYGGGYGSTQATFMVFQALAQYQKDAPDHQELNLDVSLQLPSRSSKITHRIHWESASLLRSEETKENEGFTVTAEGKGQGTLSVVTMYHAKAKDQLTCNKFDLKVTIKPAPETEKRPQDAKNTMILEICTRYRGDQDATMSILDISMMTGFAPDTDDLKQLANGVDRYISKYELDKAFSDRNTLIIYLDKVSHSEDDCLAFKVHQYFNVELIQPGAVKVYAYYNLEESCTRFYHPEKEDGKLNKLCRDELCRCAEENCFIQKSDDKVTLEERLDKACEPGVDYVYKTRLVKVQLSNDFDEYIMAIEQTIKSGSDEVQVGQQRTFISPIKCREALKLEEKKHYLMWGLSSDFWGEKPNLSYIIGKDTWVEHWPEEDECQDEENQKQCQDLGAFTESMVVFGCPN

The term IC50 denotes the concentration that gives 50% inhibition. Consider `CC[C@H](C)[C@H](NC(C)=O)C(=O)N[C@H]1CSSC[C@@H](C(=O)N[C@H](C(N)=O)[C@@H](C)O)NC(=O)[C@H](CCCN=C(N)N)NC(=O)[C@H](Cc2c[nH]cn2)NC(=O)[C@H](C)NC(=O)CNC(=O)[C@H](Cc2c[nH]c3ccccc23)NC(=O)[C@H](CC(=O)O)NC(=O)[C@H](CCC(N)=O)NC(=O)[C@H](Cc2c[nH]c3ccccc23)NC(=O)[C@H](C(C)C)NC1=O` [Cp01, reference compound], for which the IC50 turned out to be 1400 nM in series [1] and 20000 nM in series [2] (1% diluted normal human serum).
Molecule `CC[C@H](C)[C@H](NC(C)=O)C(=O)N[C@H]1CSSC[C@@H](C(=O)N[C@H](C(N)=O)[C@@H](C)O)NC(=O)[C@H](CCCNC(=N)N)NC(=O)[C@H](Cc2c[nH]cn2)NC(=O)[C@H](C)NC(=O)CNC(=O)[C@H](Cc2c[nH]c3ccccc23)NC(=O)[C@H](CC(=O)O)NC(=O)[C@H](CCC(N)=O)NC(=O)[C@H](Cc2c[nH]c3ccccc23)NC(=O)[C@H]([C@@H](C)CC)NC1=O` [Cp01-Val3Ile] (Ac-ICIWQDWGAHRCT-NH2; disulfide 2-12) registered an IC50 in series [1] of 200 nM. Besides, in series [2] (1% diluted normal human serum, listed as Cp01-V3I), the IC50 is 430 nM. For the same molecule, the “fold enhanced potency for inhibiting complement activation in vitro vs Cp01” value in series [2] (IC50 ratio vs Cp01) is “up to 40 fold”. The “fold improvement in affinity compared with Cp01” value on human C3b [3] (K D ratio vs Cp01) was about 10 fold. On human C3b [3], the “k a, affinity hC3b” value is given as 8.8(0.1) 10^5 M^–1 s^–1; the “k d, affinity hC3b” value is 1.7(0.1) 10^–2 s^–1; the Kd was 20 nM and 19.8 nM.
With `CC[C@@H](C)[C@@H]1NC(=O)[C@@H](NC(=O)[C@@H](NC(C)=O)[C@@H](C)CC)CSSC[C@@H](C(=O)N[C@H](C(N)=O)[C@@H](C)O)NC(=O)[C@H](CCCNC(=N)N)NC(=O)[C@H](Cc2c[nH]cn2)NC(=O)[C@H](C)NC(=O)CNC(=O)[C@H](Cc2c[nH]c3ccccc23)NC(=O)[C@H](CC(=O)O)NC(=O)[C@H](CCC(N)=O)NC(=O)[C@H](Cc2c[nH]c3ccccc23)NC1=O` [Cp01-Val3aIle], on human C3b [4], the Kd came to 545 nM.
In the case of `CC[C@H](C)[C@H](NC(=O)[C@H](N)Cc1ccc(O)cc1)C(=O)N[C@H]1CSSC[C@@H](C(=O)N(C)[C@H](C(N)=O)[C@@H](C)CC)NC(=O)[C@H](CCCNC(=N)N)NC(=O)[C@H](Cc2c[nH]cn2)NC(=O)[C@H](C)NC(=O)CN(C)C(=O)[C@H](Cc2c[nH]c3ccccc23)NC(=O)[C@H](CC(=O)O)NC(=O)[C@H](CCC(N)=O)NC(=O)[C@H](Cc2cn(C)c3ccccc23)NC(=O)[C@H](C(C)C)NC1=O` [Cp40, reference compound], the immunogenicity result in series [5] was “no evidence of drug-related immunogenicity or increase in antidrug antibodies”. Moreover, the safety profile result in series [5] (single and multiple doses via different routes) is recorded as “good safety profile”. The IC50 in series [2] (5% human serum) stood at 158 nM. Further, at human C3b [3], the “k a, affinity hC3b” value was 17.6(0.3) 10^5 M^–1 s^–1; the “k d, affinity hC3b” value is reported as 0.1 10^–2 s^–1; the Kd was determined as 0.7 nM. Besides, the “k d, affinity hC3b” value at human C3b [3] (listed as Cp40 Val) is listed as 0.1(0.0) 10^–2 s^–1.
By AUC(0-t) is commonly meant the area under the concentration-time curve up to a stated or last time point. Low values mean low exposure, high ones high exposure. Usually Tmax stands for the time from dosing to the highest level. In general, AUC(0-inf) refers to the area under the concentration-time curve extrapolated to infinity. Higher therefore signals more exposure. In general, Cmax refers to the peak of the concentration-time curve. One may read the half-life as how long it takes for the measured level to halve. Low readings indicate fast loss, high ones slow loss. Consider `CC[C@H](C)[C@H](NC(=O)[C@H](N)Cc1ccc(O)cc1)C(=O)N[C@H]1CSSC[C@@H](C(=O)N(C)[C@H](C(=O)N[C@@H](CCCCN)C(=O)N[C@@H](CCCCN)C(N)=O)[C@@H](C)CC)NC(=O)[C@H](CCCNC(=N)N)NC(=O)[C@H](Cc2c[nH]cn2)NC(=O)[C@H](C)NC(=O)CN(C)C(=O)[C@H](Cc2c[nH]c3ccccc23)NC(=O)[C@H](CC(=O)O)NC(=O)[C@H](CCC(N)=O)NC(=O)[C@H](Cc2cn(C)c3ccccc23)NC(=O)[C@H]([C@@H](C)CC)NC1=O` [Cp60-KK] (H-[dY]ICI[Trp(1-Me)]QDW[Sar]AHRC[NMeI]KK-NH2; disulfide 3-13), for which the AUC(0-t) in series [6] (AUC0–120h, range over both animals) was 230 to 400 µM·h; in series [6] (sc, AUC0-120h) it was 228 µM·h. Also, in series [6] (sc), the Tmax turned out to be 2 h. In addition, the total exposure AUC(0-inf) in series [6] (sc, AUC0-∞) was 479 µM·h. This molecule came in with a Cmax in series [6] (sc, Cmax) of 7.52 µM. The half-life is 30 to 40 h in series [6] (sc, t 1/2, terminal elimination phase, range over both animals) and 30.8 h in series [6] (sc, t½). In addition, the AUC0-120h in series [7] was 401 µM·h. The “AUC0-∞” value in series [7] was determined as 250 µM·h.

Values taken from paper PMC13181761, “New Analogs of the Compstatin Family of Clinical Complement Inhibitors with Low Picomolar Target Affinity” (Journal of Medicinal Chemistry, 2026).
